This experiment is described as follows: Inhibition of beta-amyloid peptide production in CHO N9 cell line.
The IC50 is the point on the concentration scale where inhibition reaches its midpoint. Read a low IC50 as higher potency. `CCC[C@H](C(=O)NO)[C@@H](CC(C)C)C(=O)N[C@H]1CCCCN(Cc2cccc(Oc3ccccc3)c2)C1=O` [(2S,3R)-N1-hydroxy-3-isobutyl-N4-((S)-2-oxo-1-(3-phenoxybenzyl)azepan-3-yl)-2-propylsuccinamide] gave a half-inhibitory concentration (IC50) of 200 nM. `CCC[C@H](C(N)=O)[C@@H](CC(C)C)C(=O)N[C@H]1CCCCN(Cc2cccc(Nc3ccccc3Cl)c2)C1=O`: 29 nM corresponded to half-maximal inhibition (IC50). The same measure for `CCC[C@H](C(N)=O)[C@@H](CC(C)C)C(=O)N[C@H]1CCCCN(Cc2cccc(Nc3cccc(OC)c3)c2)C1=O`: 54 nM. As to `CCC[C@H](C(=O)NC1CCCC1)[C@@H](CC(C)C)C(=O)N[C@H]1CCCCN(Cc2cccc(Oc3ccccc3)c2)C1=O`, the IC50 amounted to 6000 nM. In the case of `CCC[C@H](C(N)=O)[C@@H](CC(C)C)C(=O)N[C@H]1CCCCN(Cc2cccc(Nc3ccccc3)c2)C1=O` [(2R,3S)-N1-((S)-1-(3-(phenylamino)benzyl)-2-oxoazepan-3-yl)-2-isobutyl-3-propylsuccinamide] it was 15 nM; in that of `CCC[C@H](C(N)=O)[C@@H](CC(C)C)C(=O)N[C@H]1CCCCN(Cc2cccc(Nc3cccc(C)c3)c2)C1=O`, 17 nM; in that of `CCC[C@H](C(N)=O)[C@@H](CC(C)C)C(=O)N[C@H]1CCCCN(Cc2cccc(Nc3ccc(OC)cc3)c2)C1=O`, 160 nM. The same measure for `CCC[C@H](C(N)=O)[C@@H](CC(C)C)C(=O)N[C@H]1CCCCN(Cc2cccc(Nc3ccc(C(F)(F)F)cc3)c2)C1=O`: 30 nM; for `CCC[C@H](C(=O)NO)[C@@H](CC(C)C)C(=O)N[C@H]1CCCCN(Cc2ccccc2)C1=O`: 6800 nM; for `CCC[C@H](C(=O)NC/C=C/Cc1ccccc1)[C@@H](CC(C)C)C(=O)N[C@H]1CCCCN(Cc2cccc(Oc3ccccc3)c2)C1=O`: 3000 nM.

In the case of `CCC[C@H](C(N)=O)[C@@H](CC(C)C)C(=O)N[C@H]1CCCCN(Cc2cccc(Nc3ccc(F)c(Cl)c3)c2)C1=O`, half-maximal inhibition (IC50) was put at 17 nM. Compound `CCC[C@H](C(=O)NCc1ccco1)[C@@H](CC(C)C)C(=O)N[C@H]1CCCCN(Cc2cccc(Oc3ccccc3)c2)C1=O` registered an IC50 of 3000 nM. The same measure for `CCC[C@H](C(N)=O)[C@@H](CC(C)C)C(=O)N[C@H]1CCCCN(Cc2cccc(Nc3ccc4c(c3)OCO4)c2)C1=O`: 152 nM; for `CCCCNC(=O)[C@@H](CCC)[C@@H](CC(C)C)C(=O)N[C@H]1CCCCN(Cc2cccc(Oc3ccccc3)c2)C1=O`: 5000 nM.

These data come from BindingDB's records for doi:10.1016/j.bmcl.2006.01.055 (Bristol-Myers Squibb Pharmaceutical Research Institute, 2006).
